Source: publication PMC6983054, “Toxicity and Antitumor Activity of a Thiophene–Acridine Hybrid” (Molecules, 2019)
Like-named read-outs stand apart in the source and are kept apart here.

Assays:
[1] = test system: HCT-116 cells (human colon carcinoma cell line); test: MTT cytotoxicity assay, HCT-116; assay type: cell-based
Excerpt: Colorectal carcinoma cells (HCT-116), chronic myelogenous leukemia (K562), and acute promyelocytic leukemia (HL-60) were generously provided by Dr. Manoel de Moraes (Federal University of Ceará, Fortaleza, Brazil) and cultured in Roswell Park Memorial Institute 1640 (RPMI 1640; Sigma Aldrich, St. Louis, MO, USA) medium supplemented with 10% fetal bovine serum (GIBCO, Grand Island, NY, USA) and 1% penicillin–streptomycin (Sigma Aldrich, St. Louis, MO, USA). Human keratinocyte cells (HaCaT; provided by Dr. Jaciana Aguiar from Federal University of Pernambuco, Recife, Pernambuco, Brazil), cervical cancer cells (HeLa; purchased from the cell bank of Rio de Janeiro, Rio de Janeiro, Brazil), and breast cancer cells (MCF-7; provided by Dr. João Ernesto de Carvalho from University of Campinas, Campinas, São Paulo, Brazil) were grown and maintained in Dulbecco’s Modified Eagle’s Medium (DMEM; Sigma Aldrich, St. Louis, MO, USA) supplemented with 10% fetal bovine serum (GIBCO, Grand Island, NY, USA) and 1% penicillin–streptomycin (Sigma Aldrich, St. Louis, MO, USA). All cell types were maintained in 5% CO2 at 37 °C with humidity.
MTT (3-(4,5-dimethylthiazol-2-yl)-2,5-diphenyltetrazolium bromide) reduction assay was used to evaluate the cytotoxicity of ACS03 and its precursors (2-amino-5,6,7,8-tetrahydro-4H-cyclohepta[b]thiophene-3-carbonitrile and 6,9-dichloro-2-methoxyacridine) against tumor and non-tumor cell lines and PBMC. For the MTT assay, cell lines (3 × 10^5 cells/mL) and PBMC (1 × 10^6 cells/mL) were seeded on 96-well plates and cultured for 24 h. ACS03 (3.125–200 µM) was added to the cell cultures and incubated for 72 h. After incubation, 110 µL of the supernatant was removed and 10 μL of the MTT reagent (Sigma Aldrich, St. Louis, MO, USA) was added to each well, and the plates were then incubated at 37 °C. Following 3 h incubation, 100 μL of sodium dodecyl sulfate (SDS) was added to dissolve the formazan crystals produced and left overnight to incubate. The amount of formazan is proportional to the number of viable cells present. The optical density was measured using a microplate spectrophotometer reader (Microplate reader BioTek Instruments, Sinergy HT, Winooski, VT, USA) at λ = 570 nm and used to calculate the IC50 (half maximal inhibitory concentration).

[2] = test system: nitrite (nitric oxide); test: Nitrite levels in ascitic fluid, Ehrlich ascites carcinoma model (Griess); assay type: in vivo, mice (Mus musculus); details: peritoneal fluid, control 36.09 ± 0.72 µM
Protocol: The nitrite concentration in the ascitic fluid was measured using Griess reagent. For this, the peritoneal fluid of control and treated animals (12.5 mg/kg ACS03 and 25 mg/kg 5-FU) was used. The optical density was measured using a microplate spectrophotometer reader (Microplate reader BioTek Instruments, Sinergy HT, Winooski, VT, USA) at λ = 560 nm. Concentrations of nitrite were calculated from a standard curve previously established with known molar concentrations of sodium nitrite. The tests were done in quadruplicate and the values expressed in µM [51].

[3] = test system: MCF-7 (breast cancer cell line); test: MTT cytotoxicity assay, MCF-7; assay type: cell-based; details: Homo sapiens, MCF7; MCF-7, MTT, 72 h
Excerpt: (§1) Colorectal carcinoma cells (HCT-116), chronic myelogenous leukemia (K562), and acute promyelocytic leukemia (HL-60) were generously provided by Dr. Manoel de Moraes (Federal University of Ceará, Fortaleza, Brazil) and cultured in Roswell Park Memorial Institute 1640 (RPMI 1640; Sigma Aldrich, St. Louis, MO, USA) medium supplemented with 10% fetal bovine serum (GIBCO, Grand Island, NY, USA) and 1% penicillin–streptomycin (Sigma Aldrich, St. Louis, MO, USA). […]
(§2) MTT (3-(4,5-dimethylthiazol-2-yl)-2,5-diphenyltetrazolium bromide) reduction assay was used to evaluate the cytotoxicity of ACS03 and its precursors (2-amino-5,6,7,8-tetrahydro-4H-cyclohepta[b]thiophene-3-carbonitrile and 6,9-dichloro-2-methoxyacridine) against tumor and non-tumor cell lines and PBMC. […] The optical density was measured using a microplate spectrophotometer reader (Microplate reader BioTek Instruments, Sinergy HT, Winooski, VT, USA) at λ = 570 nm and used to calculate the IC50 (half maximal inhibitory concentration).

[4] = test system: LDH (Lactate dehydrogenase); test: LDH activity in zebrafish larvae; assay type: in vivo; details: 96 h, control 316.6 ± 1.28
Protocol: (§3) The FET test was repeated for ACS03 under the same conditions described above, but this time the embryos were independently exposed to three concentrations (10, 20, and 40 µM). At the end of the exposure period (96 h), the larvae were quickly frozen in a ratio of 1 larva per 100 µL of 0.1 M sodium phosphate buffer, pH 7.4.
(§4) Larval groups from each of the three tested concentrations and a negative control group (exposed to E3 medium only) were macerated using 1:9 (w/v) cold 0.9% NaCl solution. The homogenates were centrifuged at 10,000× g for 10 min at 4 °C, and the resulting supernatants were used for the measurement of soluble protein content and enzyme activity. The activities of acetylcholinesterase (AChE), glutathione S-transferase (GST), and lactate dehydrogenase (LDH) were measured according to Domingues et al. (2010). Tests were done in quadruplicate for each enzyme.

[5] = test system: HaCat (Human immortalized keratinocytes cell line); test: MTT cytotoxicity assay, HaCat non-tumor cells; assay type: cell-based; details: 72 h
Excerpt: as §1, §2

[6] = test system: HeLa (human cervical cancer cell line); test: MTT cytotoxicity assay, HeLa; assay type: cell-based; details: 72 h
Excerpt: as §1, §2

[7] = test system: HL-60 (human promyelocytic leukemia cell line); test: MTT cytotoxicity assay, HL-60; assay type: cell-based; details: HL-60, MTT, 72 h
Excerpt: as §1, §2

[8] = test system: AChE (Acetylcholinesterase); test: AChE activity in zebrafish larvae; assay type: in vivo, zebrafish (Danio rerio); details: 96 h, control 66.35 ± 0.04
Protocol: as §3, §4

[9] = test system: Leishmania; design: method as in PMID 29415325; details: cited from earlier work
[10] = Fish embryo acute toxicity (FET) test; design: species or system zebrafish (Danio rerio); details: wild-type, in vivo, zebrafish embryos, 96 h exposure; for EC50 at 96 h: zebrafish
Protocol: The zebrafish (Danio rerio) embryos were provided by the zebrafish facility established at Department of Molecular Biology, Federal University of Paraíba (João Pessoa, Brazil). To obtain embryos, an egg trap was placed overnight in a tank containing male and female specimens (1:1 ratio) of a wild-type strain one day prior to testing. One hour after the beginning of the light cycle (14 h light/10 h dark), eggs were collected and rinsed with E3 medium (5 mM NaCl, 0.17 mM KCl, 0.33 mM CaCl2, and 0.33 mM MgSO4). Viable fertilized eggs were selected using a stereomicroscope (80× magnification), and embryotoxicity analysis was carried out. All experiments were approved by the Committee on Ethical Use of Animals in Research (CEUA) of Federal University of Paraíba, Brazil, certified by number 5900310718/2018.
The fish embryo acute toxicity (FET) test was conducted with ACS03 according to OECD’s guideline no. 236, with slight modifications. Zebrafish embryos of up to 3 hpf (hours post fertilization) of age were initially exposed to 250–15.62 µM. For each concentration tested, we prepared a 96-well plate containing 20 fertilized eggs (1 embryo per well) exposed to the test sample and 4 embryos exposed only to E3 medium (internal controls). The exposure was performed for 96 h, and the embryos were analyzed every 24 h for the apical endpoints: egg coagulation; lack of somite formation; lack of detachment of the tail-bud from the yolk sac; and lack of heartbeat. In the presence of any of these endpoints, the embryo/larva was considered dead. The number of deaths was used to calculate the LC50 (median lethal concentration). Sublethal effects were also recorded in order to obtain the EC50 (median effect concentration), them being spinal deformation, reduction in larval length, and pericardial edema. The exposures were under static conditions (without renovation of test sample or E3 medium). Observations were performed in a stereomicroscope (80× magnification) and photographed (Zeiss). After 96 h, surviving larvae were euthanized with eugenol and properly discarded.
The results are expressed as the mean ± SEM. Statistical analysis of data was performed using analysis of variance (ANOVA), followed by Tukey’s test (p < 0.05). For zebrafish embryo cytotoxicity, the median lethal concentration (LC50) values and the median effect concentration (EC50) values were calculated by probit regression analysis.

[11] = Acute preclinical toxicity in mice (OECD 423); assay type: in vivo, mice (Mus musculus); details: female, Swiss albino, mouse, in vivo, ip, estimated, OECD 423, read-out: LD50 (lethal dose 50%)
Protocol: (§5) Female Swiss albino mice (Mus musculus) weighing between 28 and 32 g, with an approximate age of 60 days and obtained from the Dr. Thomas George Bioterium (Research Institute in Drugs and Medicines/Federal University of Paraíba, Paraíba, Brazil) were used. The animals were grouped in polyethylene cages containing six animals, with free access to food (Purina® feed pellets, St. Louis, MO, USA) and water. The animals were kept under controlled conditions (21 ± 1 °C, 12 h/12 h off light/dark cycle). All experiments were approved by the Committee on Ethical Use of Animals in Research (CEUA) of Federal University of Paraíba, Brazil, certified by number 093/2017.
(§6) The acute toxicity test in mice was performed according to the Guideline for Testing of Chemicals no. 423 of the Organization for Economic Co-operation and Development (OECD). Mice were divided into different groups (n = 3 females/group). The control group received vehicle alone (12% (v/v) Tween 80 in saline), and ACS03 was tested in single doses of 300 or 2000 mg/kg, intraperitoneally (i.p.). The dose responsible for the death of 50% of the experimental animals (LD50) was estimated.

[12] = test system: Swiss albino mice; test: Acute preclinical toxicity in mice (OECD 423); assay type: in vivo, mice (Mus musculus)
Protocol: as §5, §6

[13] = test system: Ehrlich ascites carcinoma; test: In vivo antitumor activity, Ehrlich ascites carcinoma model; design: species or system mice (Mus musculus); details: 12.5 mg/kg i.p., seven days
Excerpt: Ehrlich ascites carcinoma was generously provided by Pharmacology and Toxicology Division, CPQBA, UNICAMP (Paulínia, São Paulo, Brazil). The cells were maintained in the peritoneal cavities of Swiss mice in the Dr. Thomas George Bioterium (Research Institute in Drugs and Medicines/Federal University of Paraíba, João Pessoa, Brazil).
as §5
Mice were inoculated with 4 × 10^6 cells/mL of Ehrlich tumor cells (0.5 mL/animal), intraperitoneally (i.p.). After 24 h, mice were divided into […] (n = 6/group) and treated with vehicle alone (12% (v/v) Tween 80 in saline), 5-FU (standard drug, 25 mg/kg), or ACS03 (3.125, 6.25, 12.5, or 25 mg/kg) for seven consecutive days (i.p.). […]

[14] = test system: GST (Glutathione S-transferase); test: GST activity in zebrafish larvae; assay type: in vivo, zebrafish (Danio rerio); details: 96 h, control 31.8 ± 0.05
Protocol: as §3, §4

[15] = test system: peripheral blood mononuclear cells (PBMC); test: MTT cytotoxicity assay, PBMC; assay type: cell-based; details: Homo sapiens, 72 h
Protocol: Heparinized blood was collected from healthy donors, and the PBMC were isolated by a standard method of density-gradient centrifugation using Ficoll-Histopaque (Sigma Aldrich, St. Louis, MO, USA). PBMC were cultivated in RPMI-1640 medium supplemented with 10% fetal bovine serum, 1% penicillin–streptomycin, and 2% phytohaemagglutinin. Cells were kept at 37 °C with 5% CO2 for 24 h before the start of the experiment. This study was approved by the Ethics Committee of the Human Health Sciences Center Research (CCS), UFPB (CAAE: 22986519.0.0000.5188), Brazil.
as §2, with “PBMC. For the MTT assay, cell lines (3 × 10^5 cells/mL) and PBMC (1 × 10^6 cells/mL) were seeded on 96-well plates and cultured for 24 h. ACS03 (3.125–200 µM) was added to the cell cultures and incubated for 72 h.” for “PBMC.”

[16] = test system: K562 (chronic myeloid leukemic cell line); test: MTT cytotoxicity assay, K562; assay type: cell-based; details: Homo sapiens, 72 h
Excerpt: as §1, §2

[17] = test system: erythrocytes; design: method as in PMID 29415325; details: cited from earlier work
[18] = HCT-116, MTT, 72 h, read-out: IC50

## N#Cc1c(N)sc2c1CCCCC2 [2-amino-thiophene, 2-amino-5,6,7,8-tetrahydro-4H-cyclohepta[b]thiophene-3-carbonitrile]
[1]; [18]
  IC50: > 1000 µM

## COc1ccc2nc3cc(Cl)ccc3c(Cl)c2c1 [6,9-diclhoro-2-methoxi-acridine, 6,9-dichloro-2-methoxyacridine]
[1]; [18]
  IC50: 202.3 ± 1.19 µM

## COc1cccc2c1C(=O)c1c(O)c3c(c(O)c1C2=O)C[C@@](O)(C(=O)CO)C[C@@H]3O[C@H]1C[C@H](N)[C@H](O)[C@H](C)O1 [Doxorubicin]
[1]; [18]
  IC50: 2.59 µM

## O=c1[nH]cc(F)c(=O)[nH]1 [5-FU, 5-fluorouracil, reference compound]
[2]; 25 mg/kg
  nitrite concentration: 16.3 ± 2.91 µM

## COc1ccc2nc3cc(Cl)ccc3c(Nc3sc4c(c3C#N)CCCCC4)c2c1 [ACS03, 2-((6-Chloro-2-methoxyacridin-9-yl)amino)-5,6,7,8-tetrahydro-4H-cyclohepta[b]-thiophene-3-carbonitrile]
[3]
  IC50: > 50 µM
[4]; 20 µM
  LDH activity: 378.44 ± 0.58
[4]; 40 µM
  LDH activity: 426.74 ± 0.79
[5]
  IC50: 62.2 ± 1.15 µM
[6]
  IC50: > 50 µM
[7]
  IC50: > 50 µM
[8]; 10 µM
  AChE activity: 85.67 ± 0.11
[8]; 20 µM
  AChE activity: 94.59 ± 0.20
[8]; 40 µM
  AChE activity: 94.54 ± 0.10
[9]
  antileishmanial activity: showed antileishmanial activity
[10]; read-out: LC50 (median lethal concentration)
  LC50 at 96 h: > 1 mM
[10]; read-out: EC50 pericardial edema
  EC50 at 96 h: > 1000 µM
[10]; read-out: EC50 reduction in larval length
  EC50 at 96 h: 126 µM
[10]; read-out: EC50 spinal deformation
  EC50 at 96 h: 172 µM
[11]
  LD50: > 5000 mg/kg
[12]; single dose 300 mg/kg i.p., test repeated
  death in acute toxicity assay: no death
[12]; single dose 2000 mg/kg i.p., carried out twice
  death in acute toxicity assay: did not induce death
[1]; HCT-116, 72 h
  IC50: 23.1 ± 1.03 µM
[13]; trypan blue, control 115.5 ± 23.97
  cell viability: 4.12 ± 1.28 × 10^6 cells/mL
[13]; control 6.93 ± 0.79 mL
  tumor volume: 0.0 mL
[14]; 10 µM
  GST activity: 57.96 ± 0.23
[14]; 20 µM
  GST activity: 75.83 ± 0.13
[14]; 40 µM
  GST activity: 86.14 ± 0.21
[2]; 12.5 mg/kg
  nitrite concentration: 188.5 ± 7.98 µM
[15]
  IC50: 115 ± 5.82 µM
[16]
  IC50: > 50 µM
[17]
  cytotoxicity against erythrocytes: no cytotoxicity
